According to US8617614B2, “Sustained release preparation for tissue regeneration therapy” (Ono Pharmaceutical Co., Ltd., priority 2006, dated 2013):

Tested on: hippocampal CA1 region nerve cells
Assay: Number of nerve cells in hippocampal CA1 region, rat 4-VO model (Nissl staining)
Format: in vivo
Details: for number of hippocampal CA1 pyramidal nerve cells relative to the group given the medium (Test Group 3): rat 4-VO Test 1, day 42, s.c. twice daily, present drug 10, ornoprostil 0.1, PGE1•αCD 1.5 and 3 mg/kg

Structure (SMILES)	Number of nerve cells per unit length (count/mm) Left (L) (rat 4-VO Test 1, Test Group 6: 1.5 mg/kg (as PGE1) s.c. twice daily 42 days) [count/mm]	number of hippocampal CA1 pyramidal nerve cells relative to the group given the medium (Test Group 3)
CCCCC[C@H](O)/C=C/[C@H]1[C@H](O)CC(=O)[C@@H]1CCCCCCC(=O)O [PGE1•αCD, prostaglandin E1, reference compound]	105.7 ± 24.0	significant increase
CCCC[C@H](C)C[C@H](O)/C=C/[C@H]1[C@H](O)CC(=O)[C@@H]1CC(=O)CCCCC(=O)OC [ornoprostil, reference compound]	–	significant increase
